pIC50: −log10 of the molar value. Activity calls are given as the source filed them. The rule behind the calls is not given here.
Experiments:
[1] = Clearance in rat hepatocytes assessed per million cells; assay type: ADME, cell-based, Hepatocyte; details: read-out: CLH
[2] = test system: Mus musculus; assay: Inhibition of PDGFRbeta phosphorylation in C6 cells xenografted in nude mouse lungs at 3 to 50 mg/kg bid after 10 hrs by Western blot analysis; details: dose mg/kg 3-50
[3] = Terminal half life in rat at 2 mg/kg, iv; assay type: ADME, organism-based; parameters: dose 2 mg/kg, route intravenous; details: in vivo, read-out: beta t1/2 (converted)
[4] = test system: Rattus norvegicus; assay: Hepatic blood flow in rat at 0.5 to 2 mg/kg; assay type: ADME, organism-based, Liver; parameters: dose 0.5-2 mg/kg; details: in vivo
[5] = Fraction unbound in human serum; assay type: ADME, cell-free
[6] = test system: Calu-6; assay: Antitumor activity against human Calu6 cells xenografted in nude mouse assessed as tumor growth inhibition at 12.5 mg/kg bid; assay type: functional; details: read-out: TGI
[7] = Half life in rat at 2 mg/kg, po; assay type: ADME, organism-based; parameters: dose 2 mg/kg, route oral; details: in vivo
[8] = Clearance in rat at 2 mg/kg; assay type: ADME, organism-based; parameters: dose 2 mg/kg; details: in vivo
[9] = Volume of distribution at steady state in rat at 2 mg/kg; assay type: ADME, organism-based; parameters: dose 2 mg/kg; details: in vivo, read-out: Vdss
[10] = biological target: Cytochrome P450 2C9 (Homo sapiens, UniProt P11712); assay: Inhibition of CYP2C9; assay type: ADME
[11] = biological target: Voltage-gated inwardly rectifying potassium channel KCNH2 (Homo sapiens, UniProt Q12809); assay: Inhibition of human ERG
[12] = Fraction unbound in dog serum; assay type: ADME, cell-free, Canis lupus familiaris
[13] = Clearance in dog at 2 mg/kg; assay type: ADME, organism-based, Canis lupus familiaris; parameters: dose 2 mg/kg; details: in vivo
[14] = Volume of distribution at steady state in dog at 2 mg/kg; assay type: ADME, organism-based, Canis lupus familiaris; parameters: dose 2 mg/kg; details: in vivo, read-out: Vdss
[15] = test system: Canis familiaris; assay: Hepatic blood flow in dog at 0.5 to 2 mg/kg; assay type: ADME, organism-based, Canis lupus familiaris, Liver; parameters: dose 0.5-2 mg/kg; details: in vivo
[16] = Oral bioavailability in dog at 2 to 5 mg/kg; assay type: ADME, organism-based, Canis lupus familiaris; details: in vivo
[17] = test system: Calu-6; assay: Antitumor activity against human Calu6 cells xenografted in nude mouse assessed as tumor growth inhibition at 50 mg/kg bid; assay type: functional; details: read-out: TGI
[18] = Oral bioavailability in rat at 2 to 5 mg/kg; assay type: ADME, organism-based; details: in vivo
[19] = test system: LoVo; assay: Antitumor activity against human LoVo cells xenografted in nude mouse assessed as tumor growth inhibition at 50 mg/kg bid for 22 days; assay type: functional; details: 528 h, read-out: TGI
[20] = test system: C6; assay: Antitumor activity against rat C6 cells xenografted in nude mouse assessed as tumor growth inhibition at 12.5 to 50 mg/kg bid for 22 days; assay type: functional; details: dose mg/kg 12.5-50
[21] = Terminal half life in dog at 2 mg/kg, iv; assay type: ADME, organism-based, Canis lupus familiaris; parameters: dose 2 mg/kg, route intravenous; details: in vivo, read-out: beta t1/2 (converted)
[22] = Half life in dog at 2 mg/kg, po; assay type: ADME, organism-based, Canis lupus familiaris; parameters: dose 2 mg/kg, route oral; details: in vivo
[23] = test system: Mus musculus; assay: Inhibition of VEGFR2 phosphorylation in C6 cells xenografted in nude mouse lungs at 3 to 50 mg/kg bid after 10 hrs by Western blot analysis; assay type: functional; details: dose mg/kg 3-50
[24] = Oral bioavailability in rat; assay type: ADME, organism-based; details: in vivo
[25] = biological target: Aurora kinase B (Homo sapiens, UniProt Q96GD4); assay: Inhibition of aurora-B
[26] = biological target: Vascular endothelial growth factor receptor 2 (Homo sapiens) (UniProt P35968); assay: Inhibition of VEGFR2 phosphorylation by cell based assay
[27] = biological target: Macrophage colony-stimulating factor 1 receptor (Homo sapiens, UniProt P07333); assay: Inhibition of CSF1R phosphorylation by cell based assay
[28] = biological target: T1, Receptor-type tyrosine-protein kinase FLT3 (Homo sapiens, UniProt P36888); assay: Inhibition of FLT3 phosphorylation by cell based assay
T1 sequence (P36888 whole entry): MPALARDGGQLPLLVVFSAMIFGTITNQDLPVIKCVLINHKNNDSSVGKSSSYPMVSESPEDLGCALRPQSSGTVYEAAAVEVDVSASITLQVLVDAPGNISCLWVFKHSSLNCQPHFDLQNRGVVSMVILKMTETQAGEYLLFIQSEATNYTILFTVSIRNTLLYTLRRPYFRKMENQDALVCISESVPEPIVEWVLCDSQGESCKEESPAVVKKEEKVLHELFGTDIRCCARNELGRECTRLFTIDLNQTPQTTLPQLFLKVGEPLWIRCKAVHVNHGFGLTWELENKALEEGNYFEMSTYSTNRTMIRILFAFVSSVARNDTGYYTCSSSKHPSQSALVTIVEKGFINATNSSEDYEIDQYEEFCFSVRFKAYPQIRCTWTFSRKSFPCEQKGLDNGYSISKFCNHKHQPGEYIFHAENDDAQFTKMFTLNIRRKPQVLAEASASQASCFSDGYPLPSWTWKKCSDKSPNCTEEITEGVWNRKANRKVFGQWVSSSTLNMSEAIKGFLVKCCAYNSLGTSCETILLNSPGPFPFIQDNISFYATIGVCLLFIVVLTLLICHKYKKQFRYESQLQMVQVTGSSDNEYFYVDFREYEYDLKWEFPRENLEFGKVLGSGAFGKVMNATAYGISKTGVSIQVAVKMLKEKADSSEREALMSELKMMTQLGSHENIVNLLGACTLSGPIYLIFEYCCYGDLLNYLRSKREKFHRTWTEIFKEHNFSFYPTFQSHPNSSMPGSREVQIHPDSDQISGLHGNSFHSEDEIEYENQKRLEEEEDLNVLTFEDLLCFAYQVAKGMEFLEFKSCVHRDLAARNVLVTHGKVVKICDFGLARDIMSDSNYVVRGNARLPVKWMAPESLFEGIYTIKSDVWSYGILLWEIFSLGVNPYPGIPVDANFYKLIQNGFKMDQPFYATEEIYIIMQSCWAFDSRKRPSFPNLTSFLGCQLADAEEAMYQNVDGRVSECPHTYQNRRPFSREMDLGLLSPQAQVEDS

[29] = biological target: Platelet-derived growth factor receptor alpha (Homo sapiens) (UniProt P16234); assay: Inhibition of PDGFRalpha phosphorylation by cell based assay
[30] = Chemical stability of the compound at pH 1; assay type: physicochemical; details: buffer
[31] = biological target: Platelet-derived growth factor receptor beta (Homo sapiens, UniProt P09619); assay: Inhibition of PDGFRbeta phosphorylation by cell based assay
[32] = biological target: Mast/stem cell growth factor receptor Kit (Homo sapiens) (UniProt P10721); assay: Inhibition of c-Kit
[33] = Half life in iv dosed rat; assay type: ADME, organism-based; details: in vivo
[34] = Clearance in rat; assay type: ADME, organism-based; details: in vivo
[35] = Half life in dog at 3 mg/kg, po; assay type: ADME, organism-based, Canis lupus familiaris; parameters: dose 3 mg/kg, route oral; details: in vivo
[36] = Clearance in dog at 10 mg/kg, po; assay type: ADME, organism-based, Canis lupus familiaris; parameters: dose 10 mg/kg, route oral; details: in vivo
[37] = Oral bioavailability in rat at 2.7 mg/kg; assay type: ADME, organism-based; details: in vivo
[38] = Half life in dog at 2.7 mg/kg, po; assay type: ADME, organism-based, Canis lupus familiaris; parameters: dose 2.7 mg/kg, route oral; details: in vivo
[39] = Oral bioavailability in dog at 10 mg/kg; assay type: ADME, organism-based, Canis lupus familiaris; details: in vivo
[40] = Volume of distribution at steady state in dog at 3 mg/kg, iv; assay type: ADME, organism-based, Canis lupus familiaris; parameters: dose 3 mg/kg, route intravenous; details: in vivo, read-out: Vdss
[41] = Clearance in dog at 3 mg/kg, iv; assay type: ADME, organism-based, Canis lupus familiaris; parameters: dose 3 mg/kg, route intravenous; details: in vivo
[42] = Terminal half life in dog at 3 mg/kg, iv; assay type: ADME, organism-based, Canis lupus familiaris; parameters: dose 3 mg/kg, route intravenous; details: in vivo, read-out: beta t1/2 (converted)
[43] = test system: Mus musculus; assay: Inhibition of PDGFRalpha phosphorylation in rat C6 cells xenografted in nude mouse at 3 mg/kg, po; assay type: functional, organism-based; parameters: dose 3 mg/kg; details: TDE = time-dependent effect
[44] = test system: Mus musculus; assay: Inhibition of PDGFRalpha phosphorylation in rat C6 cells xenografted in po dosed nude mouse after 6 hrs; assay type: functional, organism-based

Macrophage colony-stimulating factor 1 receptor, sequence (P07333 whole entry): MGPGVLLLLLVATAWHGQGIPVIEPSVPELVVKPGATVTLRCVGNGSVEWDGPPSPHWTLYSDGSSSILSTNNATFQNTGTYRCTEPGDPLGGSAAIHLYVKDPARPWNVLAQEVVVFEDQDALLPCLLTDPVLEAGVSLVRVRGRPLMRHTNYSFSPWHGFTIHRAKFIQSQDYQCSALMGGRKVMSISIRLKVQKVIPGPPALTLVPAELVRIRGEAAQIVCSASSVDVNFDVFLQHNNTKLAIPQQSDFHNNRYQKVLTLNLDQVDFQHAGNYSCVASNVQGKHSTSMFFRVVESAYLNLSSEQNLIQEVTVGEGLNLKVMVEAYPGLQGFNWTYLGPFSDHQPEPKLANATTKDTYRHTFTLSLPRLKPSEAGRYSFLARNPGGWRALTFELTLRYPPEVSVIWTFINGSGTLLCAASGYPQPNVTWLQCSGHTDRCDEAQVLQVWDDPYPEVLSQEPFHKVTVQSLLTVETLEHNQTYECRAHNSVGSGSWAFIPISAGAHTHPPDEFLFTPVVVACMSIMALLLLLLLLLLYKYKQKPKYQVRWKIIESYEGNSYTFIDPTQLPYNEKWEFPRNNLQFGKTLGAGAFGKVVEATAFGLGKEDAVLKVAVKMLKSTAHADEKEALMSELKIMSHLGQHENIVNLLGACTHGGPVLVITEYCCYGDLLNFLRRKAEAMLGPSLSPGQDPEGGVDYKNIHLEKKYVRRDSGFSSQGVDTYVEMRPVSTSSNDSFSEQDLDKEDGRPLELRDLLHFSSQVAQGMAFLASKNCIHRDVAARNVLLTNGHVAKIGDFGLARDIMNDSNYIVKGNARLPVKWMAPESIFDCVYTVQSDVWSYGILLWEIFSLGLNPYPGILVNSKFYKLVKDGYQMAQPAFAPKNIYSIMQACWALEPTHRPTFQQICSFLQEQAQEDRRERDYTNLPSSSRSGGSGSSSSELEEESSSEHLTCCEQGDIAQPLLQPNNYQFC
Platelet-derived growth factor receptor alpha (Homo sapiens), sequence (P16234 whole entry): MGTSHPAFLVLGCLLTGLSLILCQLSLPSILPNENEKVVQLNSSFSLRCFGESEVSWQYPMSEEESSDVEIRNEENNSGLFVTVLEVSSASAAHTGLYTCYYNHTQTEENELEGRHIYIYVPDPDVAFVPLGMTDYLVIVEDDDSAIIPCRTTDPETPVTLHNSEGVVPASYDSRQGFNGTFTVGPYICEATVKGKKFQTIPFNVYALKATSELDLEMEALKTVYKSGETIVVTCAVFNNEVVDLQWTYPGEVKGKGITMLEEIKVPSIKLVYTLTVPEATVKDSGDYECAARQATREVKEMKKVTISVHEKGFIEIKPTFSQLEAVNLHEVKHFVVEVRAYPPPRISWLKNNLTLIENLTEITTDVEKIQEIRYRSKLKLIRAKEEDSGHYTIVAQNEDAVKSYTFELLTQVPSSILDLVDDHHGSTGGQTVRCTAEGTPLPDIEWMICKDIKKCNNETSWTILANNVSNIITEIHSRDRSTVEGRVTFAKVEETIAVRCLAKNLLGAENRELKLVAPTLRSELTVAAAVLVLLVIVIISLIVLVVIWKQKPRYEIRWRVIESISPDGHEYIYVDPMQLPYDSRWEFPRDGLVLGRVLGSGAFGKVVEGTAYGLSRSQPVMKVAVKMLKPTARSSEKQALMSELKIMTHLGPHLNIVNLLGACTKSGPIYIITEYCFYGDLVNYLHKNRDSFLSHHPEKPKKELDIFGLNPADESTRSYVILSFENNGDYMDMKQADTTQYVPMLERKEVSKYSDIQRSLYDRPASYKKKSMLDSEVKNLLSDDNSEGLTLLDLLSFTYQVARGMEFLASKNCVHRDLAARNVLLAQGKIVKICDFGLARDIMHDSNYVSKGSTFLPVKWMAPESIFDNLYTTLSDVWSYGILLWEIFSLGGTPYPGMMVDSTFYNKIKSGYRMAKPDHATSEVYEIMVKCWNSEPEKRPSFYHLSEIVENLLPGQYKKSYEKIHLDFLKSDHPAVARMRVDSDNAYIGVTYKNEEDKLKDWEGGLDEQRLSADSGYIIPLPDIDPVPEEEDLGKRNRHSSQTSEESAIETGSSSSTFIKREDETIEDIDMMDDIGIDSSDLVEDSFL
Platelet-derived growth factor receptor beta, sequence (P09619 whole entry): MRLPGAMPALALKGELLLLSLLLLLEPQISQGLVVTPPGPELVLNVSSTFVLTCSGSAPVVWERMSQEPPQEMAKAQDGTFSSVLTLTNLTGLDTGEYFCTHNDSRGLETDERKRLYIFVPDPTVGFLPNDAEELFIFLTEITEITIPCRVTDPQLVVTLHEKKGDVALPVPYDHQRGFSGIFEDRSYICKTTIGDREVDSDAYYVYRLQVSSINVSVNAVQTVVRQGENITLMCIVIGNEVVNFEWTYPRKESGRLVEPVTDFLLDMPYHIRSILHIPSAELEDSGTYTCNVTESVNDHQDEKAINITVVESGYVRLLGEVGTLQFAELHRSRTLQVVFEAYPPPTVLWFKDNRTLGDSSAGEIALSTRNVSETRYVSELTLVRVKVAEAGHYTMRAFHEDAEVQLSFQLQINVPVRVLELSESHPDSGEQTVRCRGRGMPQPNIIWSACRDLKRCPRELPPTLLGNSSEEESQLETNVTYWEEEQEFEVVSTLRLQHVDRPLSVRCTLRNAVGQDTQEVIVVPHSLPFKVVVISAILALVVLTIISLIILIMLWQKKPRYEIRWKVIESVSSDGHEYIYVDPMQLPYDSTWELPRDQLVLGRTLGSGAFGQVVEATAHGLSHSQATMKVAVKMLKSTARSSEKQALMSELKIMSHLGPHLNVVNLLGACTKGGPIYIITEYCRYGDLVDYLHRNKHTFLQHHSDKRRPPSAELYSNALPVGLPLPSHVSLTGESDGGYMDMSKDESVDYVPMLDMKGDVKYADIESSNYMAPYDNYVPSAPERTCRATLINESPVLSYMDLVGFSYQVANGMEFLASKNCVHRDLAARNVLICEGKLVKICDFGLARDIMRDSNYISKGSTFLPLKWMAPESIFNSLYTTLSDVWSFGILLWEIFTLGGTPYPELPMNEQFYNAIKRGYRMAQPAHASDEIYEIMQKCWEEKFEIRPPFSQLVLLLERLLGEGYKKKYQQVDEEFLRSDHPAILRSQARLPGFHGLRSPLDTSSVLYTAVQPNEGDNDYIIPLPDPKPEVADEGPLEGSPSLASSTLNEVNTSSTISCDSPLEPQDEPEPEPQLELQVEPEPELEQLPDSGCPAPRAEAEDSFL
Aurora kinase B, sequence (Q96GD4 whole entry): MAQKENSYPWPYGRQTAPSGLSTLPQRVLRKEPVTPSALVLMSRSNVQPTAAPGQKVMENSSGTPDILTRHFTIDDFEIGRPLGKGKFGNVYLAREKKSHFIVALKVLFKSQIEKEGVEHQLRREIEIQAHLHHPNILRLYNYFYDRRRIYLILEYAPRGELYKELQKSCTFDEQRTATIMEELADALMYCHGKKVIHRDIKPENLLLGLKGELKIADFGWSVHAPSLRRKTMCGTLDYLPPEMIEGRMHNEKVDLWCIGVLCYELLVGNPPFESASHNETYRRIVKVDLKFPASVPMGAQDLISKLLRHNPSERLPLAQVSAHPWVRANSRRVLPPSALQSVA
Mast/stem cell growth factor receptor Kit (Homo sapiens), sequence (P10721 whole entry): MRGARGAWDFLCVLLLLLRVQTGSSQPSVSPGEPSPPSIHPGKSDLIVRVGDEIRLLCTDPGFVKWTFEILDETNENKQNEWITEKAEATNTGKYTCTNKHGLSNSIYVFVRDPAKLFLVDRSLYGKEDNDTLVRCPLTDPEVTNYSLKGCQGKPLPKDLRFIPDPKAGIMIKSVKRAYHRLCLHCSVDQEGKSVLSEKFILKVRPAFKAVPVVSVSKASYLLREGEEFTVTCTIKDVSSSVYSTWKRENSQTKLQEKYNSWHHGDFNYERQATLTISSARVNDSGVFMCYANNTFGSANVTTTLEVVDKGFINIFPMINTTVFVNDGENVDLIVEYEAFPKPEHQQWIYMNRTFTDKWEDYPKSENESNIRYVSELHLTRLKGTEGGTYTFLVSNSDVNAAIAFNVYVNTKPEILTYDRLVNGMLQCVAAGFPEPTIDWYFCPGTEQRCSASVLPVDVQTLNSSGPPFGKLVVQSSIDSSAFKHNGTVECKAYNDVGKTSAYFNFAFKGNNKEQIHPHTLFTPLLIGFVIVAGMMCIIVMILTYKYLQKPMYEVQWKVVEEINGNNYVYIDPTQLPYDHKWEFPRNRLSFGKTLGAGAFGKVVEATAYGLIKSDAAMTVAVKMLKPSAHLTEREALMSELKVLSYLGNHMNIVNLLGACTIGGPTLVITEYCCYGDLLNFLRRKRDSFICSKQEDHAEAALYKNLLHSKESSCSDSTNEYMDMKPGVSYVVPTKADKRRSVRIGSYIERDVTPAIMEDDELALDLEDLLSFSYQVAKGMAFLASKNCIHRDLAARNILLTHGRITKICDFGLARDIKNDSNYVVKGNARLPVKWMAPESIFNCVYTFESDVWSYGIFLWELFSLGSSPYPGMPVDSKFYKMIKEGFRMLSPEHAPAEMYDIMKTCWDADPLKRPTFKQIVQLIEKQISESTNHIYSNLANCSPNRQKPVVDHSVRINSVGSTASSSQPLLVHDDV
Cytochrome P450 2C9, sequence (P11712 whole entry): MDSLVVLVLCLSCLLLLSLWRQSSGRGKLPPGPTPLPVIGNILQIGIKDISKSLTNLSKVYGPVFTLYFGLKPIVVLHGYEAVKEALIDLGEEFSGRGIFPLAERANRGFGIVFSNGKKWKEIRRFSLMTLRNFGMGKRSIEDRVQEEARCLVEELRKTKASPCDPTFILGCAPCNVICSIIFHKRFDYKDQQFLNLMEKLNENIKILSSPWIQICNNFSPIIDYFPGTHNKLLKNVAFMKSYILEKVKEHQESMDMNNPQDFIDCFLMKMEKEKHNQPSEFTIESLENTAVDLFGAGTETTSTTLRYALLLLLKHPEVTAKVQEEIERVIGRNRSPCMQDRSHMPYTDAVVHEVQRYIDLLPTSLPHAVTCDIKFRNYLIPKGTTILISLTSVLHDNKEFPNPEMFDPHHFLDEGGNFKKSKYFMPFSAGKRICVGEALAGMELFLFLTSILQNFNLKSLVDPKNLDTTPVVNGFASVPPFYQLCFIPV

## COc1cc2ncnc(Oc3ccc(CC(=O)Nc4cnn(C(C)C)c4)cc3)c2cc1OC [listing 1 of 2 here]
[1]
  hepatocyte CLint: 3.5 µL/min/1e6 cells
[2]
  inhibition (INH): 60%
[3]
  half-life: 1.3 h
[4]
  QH: 6%
[5]
  fraction unbound: 0.033
[6]
  inhibition in vivo at 12.5 mg/kg: 72%
[7]
  half-life: 6 h
[8]
  clearance: 8.9 mL/min/kg
[9]
  Vd: 0.8 L/kg
[10]
  pIC50: 5.10
[11]
  pIC50: 3.86
[12]
  fraction unbound: 0.07
[13]
  clearance: 3.3 mL/min/kg
[14]
  Vd: 0.9 L/kg
[15]
  QH: 9%
[16]
  bioavailability: 23%
[17]
  inhibition in vivo at 50 mg/kg: 81%
[18]
  bioavailability: 34%
[19]
  inhibition in vivo at 50 mg/kg: 67%
[20]
  TGI: 64%
[21]
  half-life: 4.2 h
[22]
  half-life: 6.8 h
[23]
  inhibition (INH): 60%

## COc1cc2ncnc(Nc3cnn(CC(=O)Nc4cccc(F)c4)c3)c2cc1OC
[24]
  bioavailability: < 20%
[25]
  pIC50: > 9.70
[26]
  pIC50: 7.29
[27]
  pIC50: < 6.00
[28]
  pIC50: 8.40
[29]
  inhibition: Active
[30]
  Stability: 0.1 days
[31]
  pIC50: 8.00

## CCn1cc(NC(=O)Cc2cc(Oc3ccnc4cc(OC)c(OC)cc34)n[nH]2)cn1
[26]
  pIC50: < 5.00
[27]
  pIC50: < 6.00
[32]
  inhibition: inactive
[28]
  pIC50: < 6.00
[29]
  inhibition: Active
[31]
  pIC50: < 6.00

## COc1cccc(NC(=O)Cn2cc(Oc3ncnc4cc(OC)c(OCCN5CCCCC5)cc34)cn2)c1
[24]
  bioavailability: < 20%
[26]
  pIC50: 7.51
[27]
  pIC50: 6.40
[33]
  half-life: 0.4 h
[34]
  clearance: 75 mL/min/kg
[28]
  pIC50: 8.00
[29]
  inhibition: Active
[30]
  Stability: 0.1 days
[31]
  pIC50: 8.52

## COc1cccc(NC(=O)Cn2cc(Oc3ccnc4cc(OC)c(C#N)cc34)cn2)c1
[24]
  bioavailability: < 20%
[26]
  pIC50: 6.55
[27]
  pIC50: 7.30
[28]
  pIC50: 7.40
[29]
  inhibition: Active
[30]
  Stability: 0.1 days
[31]
  pIC50: 8.70

## COc1cc2ncnc(Nc3cnn(CC(=O)Nc4ccc(N(C)C)cc4)c3)c2cc1OC
[24]
  bioavailability: < 20%
[25]
  pIC50: < 8.00
[26]
  pIC50: 7.00
[27]
  pIC50: 6.22
[28]
  pIC50: 8.40
[29]
  inhibition: Active
[30]
  Stability: 0.1 days
[31]
  pIC50: 8.22

## COc1cc2ncnc(Oc3ccc(CC(=O)Nc4cnn(C(C)C)c4)cc3)c2cc1OC.O=P(O)(O)O
[35]
  half-life: 6.8 h
[36]
  CL/F: 5.2 mL/min/kg
[37]
  bioavailability: > 90%
[38]
  half-life: 4.3 h
[39]
  bioavailability: > 90%
[40]
  Vd: 0.7 L/kg
[41]
  clearance: 1.7 mL/min/kg
[42]
  half-life: 4.7 h

## COc1cc2ncnc(Oc3ccc(CC(=O)Nc4cnn(C(C)C)c4)cc3)c2cc1OC [listing 2 of 2 here]
[43]
  inhibition: tde
[44]
  inhibition: Dose-dependent effect
[29]
  INH: 2 nM

## COc1cccc(NC(=O)Cn2cc(Nc3ncnc4cc(OC)c(OC)cc34)cn2)c1
[24]
  bioavailability: < 20%
[25]
  pIC50: < 8.00
[26]
  pIC50: 7.60
[27]
  pIC50: < 6.05
[28]
  pIC50: < 7.70
[29]
  inhibition: Active
[30]
  Stability: 0.1 days
[31]
  pIC50: 8.00

## COc1cc2ncnc(Oc3cnn(CC(=O)Nc4ccc(N(C)C)cn4)c3)c2cc1OC
[24]
  bioavailability: < 20%
[26]
  pIC50: 7.41
[27]
  pIC50: 7.70
[28]
  pIC50: 8.52
[29]
  inhibition: Active
[30]
  Stability: 0.1 days
[31]
  pIC50: 8.52
